Reference: patent US9675592B2, “Methods and compositions for bacteria infections” (priority 2013, dated 2017)

Experiments:
[1] = test system: test strain 923 pPvra-lux (USA300 MRSA); assay: Primary screen, relative growth in presence of oxacillin; conditions: compound 10 μM with oxacillin 2 μg/mL, absorbance 24 h, <0.50 = dead cells = hit
[2] = test system: vraSR promoter (Pvra-lux reporter in strain 923); assay: Primary screen, relative luminescence (vraSR expression); conditions: primary screen, compound 10 μM with oxacillin 2 μg/mL; <0.50 = vraSR repressed = hit

Row | SMILES | RG avg (relative growth) [1] | RL avg (relative luminescence) [2]
1 | COc1ccc(Cc2nnc(NC(=O)c3ccc(S(=O)(=O)N(C)Cc4ccccc4)cc3)o2)cc1 [F2368-617] | −0.04 | −0.07
2 | CCC1CCCCN1S(=O)(=O)c1ccc(C(=O)Nc2nnc(Cc3ccc(OC)cc3)o2)cc1 (centres unmarked) [F2368-619] | −0.03 | 0.01
3 | CC(C)c1ccc(Cc2nnc(NC(=O)c3ccc4ncsc4c3)o2)cc1 [F2368-1143] | −0.01 | −0.09
4 | COc1cc(-c2nnc(NC(=O)c3cccc(Cl)c3)o2)cc(OC)c1OC [F2517-7] | −0.03 | −0.11
5 | COc1cc(-c2nnc(NC(=O)c3cccc(Br)c3)o2)cc(OC)c1OC [F2517-14] | −0.03 | −0.07
6 | COc1cc(-c2nnc(NC(=O)c3cccc(C(F)(F)F)c3)o2)cc(OC)c1OC [F2517-37] | −0.02 | −0.06
7 | CCOc1cc(-c2nnc(NC(=O)C(c3ccccc3)c3ccccc3)o2)cc(OCC)c1OCC [F2517-165] | 0.31 | −0.07
8 | CCOc1cc(-c2nnc(NC(=O)c3ccc4ccccc4c3)o2)cc(OCC)c1OCC [F2517-182] | 0.46 | −0.04
9 | CCOc1ccc(-c2nnc(NC(=O)c3c(-c4ccccc4Cl)noc3C)o2)cc1 [F2517-329] | −0.02 | −0.11
10 | O=C(Nc1nnc(-c2cc(Cl)ccc2Cl)o1)c1ccccc1 [F2518-2] | −0.02 | 0.01
11 | O=C(Nc1nnc(-c2cc(Cl)ccc2Cl)o1)c1ccc(C(=O)c2ccccc2)cc1 [F2518-24] | −0.01 | 0.06
12 | O=C(Nc1nnc(-c2cc(Cl)ccc2Cl)o1)c1nc2ccccc2s1 [F2518-39] | −0.01 | −0.07
13 | O=C(Nc1nnc(-c2cc(Cl)ccc2Cl)o1)c1ccc(Br)s1 [F2518-41] | 0.00 | −0.03
14 | O=C(Nc1nnc(-c2cc(Cl)ccc2Cl)o1)c1cc(Cl)ccc1Cl [F2518-49] | −0.03 | −0.05
15 | O=C(Nc1nnc(-c2cc(Cl)ccc2Cl)o1)c1cc(-c2ccccc2)nc2ccccc12 [F2518-55] | 0.00 | −0.02
16 | O=C(Nc1nnc(-c2cc(Cl)ccc2Cl)o1)c1ccc2c(c1)CCCC2 [F2518-85] | 0.00 | −0.05
17 | Cc1ccc(-c2nnc(NC(=O)c3ccc(Cl)cc3Cl)o2)c(C)c1 [F2518-166] | −0.02 | −0.10
18 | Cc1ccc(-c2nnc(NC(=O)c3ccc(C(=O)c4ccccc4)cc3)o2)c(C)c1 [F2518-168] | −0.03 | −0.07
19 | Cc1ccc(-c2nnc(NC(=O)c3nc4ccccc4s3)o2)c(C)c1 [F2518-183] | 0.00 | −0.04
20 | Cc1ccc(-c2nnc(NC(=O)c3ccc(Cl)s3)o2)c(C)c1 [F2518-186] | 0.01 | −0.09
21 | Cc1ccc(-c2nnc(NC(=O)c3cccc(C(F)(F)F)c3)o2)c(C)c1 [F2518-189] | 0.01 | −0.02

Row | SMILES | RG avg (relative growth) [1] | RL avg (relative luminescence) [2]
22 | Cc1ccc(-c2nnc(NC(=O)c3ccc(S(=O)(=O)N4CCCCC4C)cc3)o2)c(C)c1 (centres unmarked) [F2518-228] | 0.00 | −0.14
23 | Cc1ccc(C)c(-c2nnc(NC(=O)c3cccc(Cl)c3)o2)c1 [F2518-295] | 0.01 | −0.09
24 | CCN(CC)S(=O)(=O)c1ccc(C(=O)Nc2nnc(-c3cc(C)ccc3C)o2)cc1 [F2518-298] | −0.02 | 0.06
25 | Cc1ccc(C)c(-c2nnc(NC(=O)c3cccc(F)c3)o2)c1 [F2518-301] | −0.01 | −0.10
26 | Cc1ccc(C)c(-c2nnc(NC(=O)c3cccc(Br)c3)o2)c1 [F2518-303] | 0.00 | −0.02
27 | Cc1ccc(C)c(-c2nnc(NC(=O)c3ccc(Br)s3)o2)c1 [F2518-329] | 0.00 | −0.11
28 | Cc1ccc(C)c(-c2nnc(NC(=O)c3ccc(S(=O)(=O)N4CC(C)OC(C)C4)cc3)o2)c1 (centres unmarked) [F2518-334] | 0.00 | −0.04
29 | Cc1ccc(C)c(-c2nnc(NC(=O)c3ccc(S(=O)(=O)N4CCCc5ccccc54)cc3)o2)c1 [F2518-342] | 0.00 | −0.02
30 | COC(=O)c1ccc(C(=O)Nc2nnc(-c3cc(C)ccc3C)o2)cc1 [F2518-355] | −0.01 | −0.04
31 | Cc1ccc(C)c(-c2nnc(NC(=O)c3cc(Cl)sc3Cl)o2)c1 [F2518-360] | 0.04 | 0.13
32 | Cc1ccc(C)c(-c2nnc(NC(=O)c3ccc4c(c3)CCCC4)o2)c1 [F2518-373] | 0.05 | −0.05
33 | Cc1ccc(C)c(-c2nnc(NC(=O)c3ccc4ncsc4c3)o2)c1 [F2518-414] | 0.01 | −0.02
34 | Cc1cccc(C(=O)Nc2nnc(-c3ccc(Br)cc3)o2)c1 [F2518-436] | 0.00 | −0.06
35 | O=C(Nc1nnc(-c2ccc(Br)cc2)o1)c1cccc(Br)c1 [F2518-447] | 0.02 | 0.00
36 | COc1cc(OC)cc(C(=O)Nc2nnc(-c3ccc(Br)cc3)o2)c1 [F2518-451] | −0.01 | −0.10
37 | O=C(Nc1nnc(-c2ccc(Br)cc2)o1)c1cccc(C(F)(F)F)c1 [F2518-477] | 0.01 | 0.03
38 | O=C(Nc1nnc(-c2ccc(Br)cc2)o1)c1cc(Cl)ccc1Cl [F2518-481] | 0.00 | −0.05
39 | O=C(COc1ccc(Cl)cc1)Nc1nnc(-c2ccc(Br)cc2)o1 [F2518-483] | −0.02 | −0.04
40 | O=C(Nc1nnc(-c2ccc(Br)cc2)o1)c1sc2ccccc2c1Cl [F2518-484] | 0.02 | 0.02
41 | O=C(Nc1nnc(-c2ccc(Br)cc2)o1)c1cc(Cl)sc1Cl [F2518-504] | 0.01 | 0.00
42 | O=C(Nc1nnc(-c2ccc(Br)cc2)o1)c1ccc2c(c1)CCCC2 [F2518-517] | 0.01 | −0.08

Row | SMILES | RG avg (relative growth) [1] | RL avg (relative luminescence) [2]
43 | O=C(Nc1nnc(-c2ccc(Br)cc2)o1)c1ccc(Oc2ccccc2)cc1 [F2518-534] | 0.01 | 0.04
44 | O=C(Nc1nnc(-c2ccc(Br)cc2)o1)c1ccc2ncsc2c1 [F2518-558] | −0.02 | −0.08
45 | COc1cccc2cc(C(=O)Nc3nnc(-c4ccc(Cl)cc4Cl)o3)oc12 [F2518-1563] | 0.00 | −0.16
46 | CSc1ccccc1-c1nnc(NC(=O)c2ccc(F)cc2)o1 [F2645-12] | 0.41 | 0.51
47 | CSc1ccccc1-c1nnc(NC(=O)c2cc(Cl)sc2Cl)o1 [F2645-67] | 0.02 | 0.37
48 | CCOc1cc(C(=O)Nc2nnc(-c3ccccc3SC)o2)cc(OCC)c1OCC [F2645-99] | 0.09 | 0.43
49 | CCN(c1ccccc1)S(=O)(=O)c1ccc(C(=O)Nc2nnc(-c3ccccc3SC)o2)cc1 [F2645-115] | 0.13 | 0.45
50 | CSc1ccc(-c2nnc(NC(=O)c3ccc4c(c3)CCCC4)o2)cc1 [F2645-379] | 0.04 | 0.37
51 | CSc1ccc(-c2nnc(NC(=O)c3ccc(S(=O)(=O)N(C)Cc4ccccc4)cc3)o2)cc1 [F2645-405] | 0.29 | 0.57
52 | Cc1ccc(-c2nnc(NC(=O)c3ccc(F)cc3)o2)cc1C [F2767-12] | 0.02 | 0.01
53 | COc1cccc(C(=O)Nc2nnc(-c3ccc(C)c(C)c3)o2)c1 [F2767-17] | 0.00 | −0.15
54 | Cc1ccc(-c2nnc(NC(=O)c3ccc(S(=O)(=O)N4CCCCC4)cc3)o2)cc1C [F2767-26] | 0.03 | −0.05
55 | COc1ccc(-c2nnc(NC(=O)c3cc(Cl)sc3Cl)o2)cc1OC [F2767-204] | −0.02 | −0.09
56 | CC(C)Cn1c(N)c(C(=O)NCc2cccs2)c2nc3ccccc3nc21 [F3225-3356] | 0.39 | 0.01
57 | O=C(Nc1nnc(-c2ccc(Br)s2)o1)c1ccc(F)cc1 [F5093-12] | 0.01 | −0.01
58 | O=C(Nc1nnc(-c2ccc(Br)s2)o1)c1nc2ccccc2s1 [F5093-37] | 0.02 | −0.03
59 | O=C(Nc1nnc(-c2ccc(Br)s2)o1)c1ccc(Cl)s1 [F5093-40] | 0.03 | −0.02
60 | O=C(Nc1nnc(-c2ccc(Br)s2)o1)c1cc(Cl)ccc1Cl [F5093-46] | −0.01 | −0.07
61 | CCCCN(C)S(=O)(=O)c1ccc(C(=O)Nc2nnc(-c3ccc(Br)s3)o2)cc1 [F5093-101] | −0.02 | −0.04
